Assay results: patent US11872237B2, “Pharmaceutical composition and preparation method thereof” (Ascentage Pharma (Suzhou) Co., Ltd., priority 2019, dated 2024)
Converted amounts (≈) assume the structure as drawn.

Assays:
[1] = Effect of pH value on the solubility of Compound 1 (solution appearance); type: physicochemical
Method: (§1) Experimental method: Referring to the process of preparation of solution in Preparation Example 1, the preparation was carried out in an amount of 10 vials, and the solutions with different pH values were prepared according to the following formulations (contents in each vial), and the properties of the prepared solutions were observed.
The thicker of the milky white, the worse of the solubility.

[2] = Solubility of Compound 1 in different co-solvents (excess compound, HPLC analysis); type: physicochemical; conditions: organic solvent or mixture, thermodynamic from solid, about half an hour
Text: 2. The effects of different co-solvents on the solubility of Compound 1 were observed. The specific results are as follows.
Experimental method: Compound 1 was taken in excess amount, suspended in various solvents, sampled and filtered after about half an hour, and analyzed by HPLC analysis.

[3] = Effect of surfactant on solubility and clarity of Compound 1 (appearance observation); type: physicochemical; conditions: PEG400, ethanol, mannitol
Method: 3. The effects of the Polyoxyl 35 Castor Oil ester used by the present invention as surfactant on the solubility and clarity of the compound 1 were further tested. The specific results are as follows.
as §1, with “vial) for appearance observation.” for “vial), and the properties of the prepared solutions were observed.”
In addition, the effect of Tween80 as surfactant of the present invention on the solubility and clarity of compound 1 was tested. Specific results are as follows.
Experimental Method: referring to the process of preparation of solution in Preparation Example 1, the solution was prepared according to the formulation in the Table below for appearance observation.
Similarly, the effect of Solutol HS-15 as surfactant of the present invention on the solubility and clarity of compound 1 was tested. Specific results are as follows.

[4] = General statements on solubility and stability of Compound 1 versus pH; type: physicochemical
cancer cells = conditions: see WO2014113413; cited from earlier work

solubility of Compound 1 ([1]; pH 7.888, Table 1 formulation): poor
solubility of Compound 1 ([1]; pH 8.528, Table 1 formulation): acceptable
solubility of Compound 1 ([1]; pH 9.016, Table 1 formulation): acceptable
solubility of Compound 1 ([1]; pH 9.326, Table 1 formulation): best solubility
solubility ([2]; solvent Ethanol, 25° C.): 850 µg/mL (≈ 663 µM)
solubility ([2]; solvent Glycerin, 25° C.): 450 µg/mL (≈ 351 µM)
solubility ([2]; solvent PEG400, 25° C.): 16800 µg/mL (≈ 13100 µM)
solubility ([2]; solvent Propylene glycol, 25° C.): 3100 µg/mL (≈ 2420 µM)
Solution appearance ([3]; Table 3a: compound 1 10 mg/ml, Tween80 50 mg, pH 9.0): Transparent solution
Solution appearance ([3]; Table 3b: compound 1 10 mg/ml, Solutol HS-15 240 mg, pH 8.7): Transparent solution
solubility ([4]; acidic or near-neutral solutions): extremely poorly soluble
dissolution ([4]; alkaline conditions): greatly improved
stability ([4]; alkaline conditions): unstable
SMILES: Cc1c(S(C)(=O)=O)c(-c2cc(F)cc(N3CCN(c4ccc(NS(=O)(=O)c5ccc(N[C@H](CCN6CCC(C(=O)OCCCP(=O)(O)O)CC6)CSc6ccccc6)c(S(=O)(=O)C(F)(F)F)c5)cc4)CC3)c2)c(-c2ccc(Cl)cc2)n1C(C)C [Compound 1, (3R)-1-(3-(4-(4-(4-(3-(2-(4-chlorophenyl)-1-isopropyl-4-methylsulfonyl-5-methyl-1H-pyrrol-3-yl)-5-fluorophenyl)piperazin-1-yl)-phenylaminosulfonyl)-2-trifluoromethylsulfonyl-anilino)-4-phenylthio-butyl)-piperidine-4-carboxylic acid 3-phosphonopropyl ester]
inducing apoptosis of cancer cells (cancer cells): effective
